Data set [1] deals with T1, Disintegrin and metalloproteinase domain-containing protein 10 (Homo sapiens, UniProt O14672).
T1 sequence (O14672 whole entry): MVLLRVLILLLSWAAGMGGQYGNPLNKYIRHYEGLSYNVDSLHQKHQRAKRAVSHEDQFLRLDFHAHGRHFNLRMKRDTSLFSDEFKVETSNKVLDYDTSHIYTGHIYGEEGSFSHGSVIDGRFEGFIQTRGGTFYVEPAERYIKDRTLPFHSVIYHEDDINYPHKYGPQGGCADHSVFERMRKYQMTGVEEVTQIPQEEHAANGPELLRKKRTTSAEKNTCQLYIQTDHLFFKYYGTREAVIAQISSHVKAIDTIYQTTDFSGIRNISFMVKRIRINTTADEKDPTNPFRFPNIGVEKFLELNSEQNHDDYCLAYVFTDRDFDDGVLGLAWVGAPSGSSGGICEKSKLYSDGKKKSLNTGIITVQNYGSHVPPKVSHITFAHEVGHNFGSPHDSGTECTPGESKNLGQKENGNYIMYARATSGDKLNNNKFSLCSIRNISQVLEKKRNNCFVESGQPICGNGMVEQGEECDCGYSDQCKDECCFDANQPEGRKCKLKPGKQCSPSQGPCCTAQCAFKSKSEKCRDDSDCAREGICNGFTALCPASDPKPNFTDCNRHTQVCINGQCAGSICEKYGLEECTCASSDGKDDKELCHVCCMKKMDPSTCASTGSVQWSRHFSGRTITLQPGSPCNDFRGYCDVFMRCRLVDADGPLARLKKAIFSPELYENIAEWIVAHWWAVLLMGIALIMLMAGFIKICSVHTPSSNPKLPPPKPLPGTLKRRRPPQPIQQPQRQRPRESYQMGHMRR
The data set is described as follows: Inhibition of ADAM10.

The target of data set [2] is T2, Interstitial collagenase (Homo sapiens, UniProt P03956).
T2 sequence (P03956 whole entry): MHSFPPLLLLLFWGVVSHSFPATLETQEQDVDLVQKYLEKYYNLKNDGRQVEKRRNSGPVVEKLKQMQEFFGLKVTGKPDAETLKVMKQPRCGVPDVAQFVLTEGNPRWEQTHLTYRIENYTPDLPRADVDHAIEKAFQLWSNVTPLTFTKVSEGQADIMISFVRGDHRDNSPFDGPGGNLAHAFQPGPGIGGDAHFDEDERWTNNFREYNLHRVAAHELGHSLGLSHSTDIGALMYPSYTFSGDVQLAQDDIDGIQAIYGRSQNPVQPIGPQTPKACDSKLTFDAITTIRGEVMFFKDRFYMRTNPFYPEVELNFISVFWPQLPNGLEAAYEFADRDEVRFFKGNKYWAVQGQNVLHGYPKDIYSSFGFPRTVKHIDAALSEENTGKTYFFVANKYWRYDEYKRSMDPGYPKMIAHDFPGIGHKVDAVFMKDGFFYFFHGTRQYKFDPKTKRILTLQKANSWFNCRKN
The data set can be described thus: Inhibition of MMP1.

Data set [3] concerns the target 72 kDa type IV collagenase (Homo sapiens, UniProt P08253). The data set is described as follows: Inhibition of MMP2.
The target of data set [4] is Stromelysin-1 (Homo sapiens, UniProt P08254). The data set can be described thus: Inhibition of MMP3.
Data set [5] concerns the target Matrix metalloproteinase-9 (Homo sapiens, UniProt P14780). The data set can be described thus: Inhibition of MMP9.
Data set [6] can be described thus: Clearance in murine. The conditions noted are these: mouse, in vivo. In kind it is ADME, organism-based.
Data set [7] is described as follows: Protein binding in murine plasma. Format: ADME, organism-based. Conditions: mouse, read-out: PPB (converted).
Data set [8] can be described thus: AUC (0-24h) in murine at 10 mg/kg, po. In kind it is ADME, organism-based. More on the design: time < 24 hr, dose 10 mg/kg, route oral. The conditions noted are these: mouse, in vivo.
A short description of data set [9]: Cmax in murine at 10 mg/kg, po. The conditions noted are these: mouse, in vivo. More on the design: dose 10 mg/kg, route oral. In kind it is ADME, organism-based.
In data set [10] the target is Receptor tyrosine-protein kinase erbB-2 (Homo sapiens) (UniProt P04626). The data set can be described thus: Inhibition of Her2 sheddase activity in BT474 cell line. In kind it is functional, cell-based. Conditions: BT-474.

Active and inactive are the calls of the source. No cut-off for these calls is given here.

Chain of 72 kDa type IV collagenase (P08253 whole entry): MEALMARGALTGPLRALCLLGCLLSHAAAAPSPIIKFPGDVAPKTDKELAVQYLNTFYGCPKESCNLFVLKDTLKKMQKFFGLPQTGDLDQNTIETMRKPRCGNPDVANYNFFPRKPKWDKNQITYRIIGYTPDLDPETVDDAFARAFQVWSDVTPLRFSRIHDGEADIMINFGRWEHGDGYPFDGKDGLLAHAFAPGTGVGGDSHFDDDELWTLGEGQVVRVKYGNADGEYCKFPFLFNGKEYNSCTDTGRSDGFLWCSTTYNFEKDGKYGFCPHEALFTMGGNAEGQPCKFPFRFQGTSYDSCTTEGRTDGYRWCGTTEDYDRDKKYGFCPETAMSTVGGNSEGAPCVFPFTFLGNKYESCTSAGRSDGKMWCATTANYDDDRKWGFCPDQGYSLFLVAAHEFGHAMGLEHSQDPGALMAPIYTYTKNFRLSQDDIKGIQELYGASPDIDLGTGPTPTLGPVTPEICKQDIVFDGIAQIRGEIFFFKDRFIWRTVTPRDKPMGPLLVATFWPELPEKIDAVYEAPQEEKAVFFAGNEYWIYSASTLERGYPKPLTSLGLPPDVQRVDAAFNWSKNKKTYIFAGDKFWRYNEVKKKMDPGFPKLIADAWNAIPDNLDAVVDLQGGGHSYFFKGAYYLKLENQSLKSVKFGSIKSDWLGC
Chain of Matrix metalloproteinase-9 (P14780 whole entry): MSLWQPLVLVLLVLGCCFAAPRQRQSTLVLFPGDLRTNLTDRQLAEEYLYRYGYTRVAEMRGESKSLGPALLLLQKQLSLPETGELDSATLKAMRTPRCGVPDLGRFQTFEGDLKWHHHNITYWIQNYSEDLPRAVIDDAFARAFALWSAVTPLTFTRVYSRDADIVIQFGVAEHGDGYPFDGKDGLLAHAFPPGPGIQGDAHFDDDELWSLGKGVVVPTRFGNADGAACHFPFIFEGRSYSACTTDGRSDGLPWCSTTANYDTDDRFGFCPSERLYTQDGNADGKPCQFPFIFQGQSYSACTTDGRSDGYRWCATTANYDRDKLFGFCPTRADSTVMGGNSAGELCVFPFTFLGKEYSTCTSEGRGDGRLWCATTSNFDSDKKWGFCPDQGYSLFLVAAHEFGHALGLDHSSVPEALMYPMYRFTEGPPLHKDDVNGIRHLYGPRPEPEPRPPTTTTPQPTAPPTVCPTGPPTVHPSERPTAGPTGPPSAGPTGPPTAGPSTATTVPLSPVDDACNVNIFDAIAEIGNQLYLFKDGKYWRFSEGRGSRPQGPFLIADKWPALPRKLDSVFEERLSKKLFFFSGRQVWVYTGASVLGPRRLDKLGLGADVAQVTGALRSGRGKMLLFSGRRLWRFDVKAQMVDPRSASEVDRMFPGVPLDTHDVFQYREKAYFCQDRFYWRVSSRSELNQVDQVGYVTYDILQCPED
Chain of Stromelysin-1 (P08254 whole entry): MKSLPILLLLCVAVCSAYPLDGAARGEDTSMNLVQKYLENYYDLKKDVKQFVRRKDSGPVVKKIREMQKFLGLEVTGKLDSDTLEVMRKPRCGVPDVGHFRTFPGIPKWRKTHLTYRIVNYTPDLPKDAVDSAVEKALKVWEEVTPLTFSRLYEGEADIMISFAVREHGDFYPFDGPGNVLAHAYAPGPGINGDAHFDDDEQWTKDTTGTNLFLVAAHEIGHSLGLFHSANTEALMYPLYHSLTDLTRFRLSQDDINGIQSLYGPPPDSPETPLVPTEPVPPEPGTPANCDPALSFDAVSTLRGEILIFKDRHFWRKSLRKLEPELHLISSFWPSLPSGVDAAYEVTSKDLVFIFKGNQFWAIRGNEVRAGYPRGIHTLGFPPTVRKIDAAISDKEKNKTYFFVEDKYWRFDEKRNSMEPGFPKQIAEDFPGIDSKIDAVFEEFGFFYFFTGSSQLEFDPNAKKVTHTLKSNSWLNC
Chain of Receptor tyrosine-protein kinase erbB-2 (Homo sapiens) (P04626 whole entry): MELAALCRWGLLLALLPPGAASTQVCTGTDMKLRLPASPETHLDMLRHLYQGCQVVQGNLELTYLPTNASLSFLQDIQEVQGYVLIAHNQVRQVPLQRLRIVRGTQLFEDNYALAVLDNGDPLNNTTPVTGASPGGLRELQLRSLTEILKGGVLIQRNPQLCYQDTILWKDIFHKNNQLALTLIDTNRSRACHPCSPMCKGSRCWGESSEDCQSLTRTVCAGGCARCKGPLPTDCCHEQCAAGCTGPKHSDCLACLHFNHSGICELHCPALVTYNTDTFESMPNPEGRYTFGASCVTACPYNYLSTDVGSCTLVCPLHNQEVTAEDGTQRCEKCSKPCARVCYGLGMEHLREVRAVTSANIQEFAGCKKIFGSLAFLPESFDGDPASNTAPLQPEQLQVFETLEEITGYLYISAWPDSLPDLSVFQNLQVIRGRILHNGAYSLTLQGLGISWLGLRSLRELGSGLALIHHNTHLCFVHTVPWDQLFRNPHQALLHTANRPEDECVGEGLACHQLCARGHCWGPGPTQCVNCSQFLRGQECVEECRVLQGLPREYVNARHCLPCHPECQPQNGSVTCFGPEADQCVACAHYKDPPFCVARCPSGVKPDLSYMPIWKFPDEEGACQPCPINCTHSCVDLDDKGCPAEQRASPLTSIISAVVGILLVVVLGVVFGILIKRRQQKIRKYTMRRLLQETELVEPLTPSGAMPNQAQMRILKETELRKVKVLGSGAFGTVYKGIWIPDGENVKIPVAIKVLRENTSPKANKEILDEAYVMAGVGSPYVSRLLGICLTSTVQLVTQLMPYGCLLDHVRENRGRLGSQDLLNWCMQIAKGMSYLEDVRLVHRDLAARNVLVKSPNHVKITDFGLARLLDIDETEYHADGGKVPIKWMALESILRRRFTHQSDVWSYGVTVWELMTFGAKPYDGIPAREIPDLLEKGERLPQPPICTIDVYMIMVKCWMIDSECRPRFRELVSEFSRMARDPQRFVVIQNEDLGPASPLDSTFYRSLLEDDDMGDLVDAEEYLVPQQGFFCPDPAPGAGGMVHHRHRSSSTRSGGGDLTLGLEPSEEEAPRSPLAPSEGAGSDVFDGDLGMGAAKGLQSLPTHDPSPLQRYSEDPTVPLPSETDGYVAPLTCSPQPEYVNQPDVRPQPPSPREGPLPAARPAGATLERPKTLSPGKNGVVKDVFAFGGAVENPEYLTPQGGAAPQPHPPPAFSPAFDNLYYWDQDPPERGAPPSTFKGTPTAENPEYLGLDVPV

In the case of `CC1=C(c2ccccc2)CCN(C(=O)[C@H]2NCC3(CC3)C[C@@H]2C(=O)NO)C1`, the concentration for half-maximal inhibition (IC50) in data set [1] was 720 nM; in data set [2], > 5000 nM; in data set [3] it was > 5000 nM; in [4], > 5000 nM; in data set [5], > 5000 nM.
With `O=C(NO)[C@H]1CC2(CC2)CN[C@@H]1C(=O)N1CC=C(c2ccccc2)CC1`, the IC50 in data set [2] stood at 3900 nM; in [3], 5 nM; in data set [4] it was 1200 nM; in [5], 113 nM. The clearance in data set [6] was 15 mL/min/kg. In data set [7], the fraction unbound was 0.4. Further, the area under the curve AUC(0-t) at 24 h in data set [8] amounted to 0.35 µM·h. Also, the maximum concentration (Cmax) in data set [9] was 0.58 µM.
As for `CN1CC2(CC2)C[C@H](C(=O)NO)[C@H]1C(=O)N1CCN(c2ccccc2)CC1`, the IC50 in data set [1] was 310 nM; in data set [2] it was > 5000 nM; in data set [3], 150 nM; in [4], > 5000 nM; in data set [5] it was > 5000 nM.
For the compound `O=C(NO)[C@H]1CC2(CC2)CN[C@@H]1C(=O)N1CC=C(c2ccccc2)C1`, the IC50 in data set [1] was 23 nM; in data set [2], 2500 nM; in data set [3] it was 13 nM; in data set [4], 450 nM; in data set [5], 77 nM.
Taken in the same sequence, the figures for `Cc1cc([N+](=O)[O-])ccc1C1=CCN(C(=O)[C@H]2NCC3(CC3)C[C@@H]2C(=O)NO)CC1` were 130 nM, > 5000 nM, > 5000 nM, > 5000 nM and > 5000 nM.
`CN1CC2(CC2)C[C@H](C(=O)NO)[C@H]1C(=O)N1CC=C(c2ccccc2)CC1`: the IC50 is 77 nM in data set [1]; > 5000 nM in data set [2]; 64 nM in data set [3]; > 1000 nM in data set [4]; > 5000 nM in [5].
As for `O=C(NO)[C@H]1CC2(CC2)CN[C@@H]1C(=O)N1CCN(c2ccccc2)CC1`, the IC50 in [2] is > 5000 nM; in data set [3] it was 200 nM; in data set [4], > 5000 nM; in data set [5] it was 650 nM.
Consider `Cc1cc([N+](=O)[O-])ccc1N1CCN(C(=O)[C@H]2NCC3(CC3)C[C@@H]2C(=O)NO)CC1`, for which the 50% inhibitory concentration (IC50) in data set [1] was 110 nM; in data set [2], > 5000 nM; in data set [3], > 1000 nM; in [4], > 1000 nM; in data set [5], > 5000 nM.
For `COC(=O)N1CC2(CC2)C[C@H](C(=O)NO)[C@H]1C(=O)N1CC=C(c2ccccc2)CC1`, the concentration for half-maximal inhibition (IC50) is > 5000 nM in [2], 39 nM in [3], 4000 nM in [4] and 428 nM in [5]. In data set [6], this compound showed a clearance of 6.67 mL/min/kg. For the same compound, the fraction unbound in data set [7] was 0.7. In data set [8], the exposure AUC(0-t) at 24 h worked out at 3.9 µM·h. Further, the Cmax in data set [9] was determined as 7.7 µM.
In the case of `CCC(C)NC(=O)[C@@H]1[C@@H](C(=O)NO)CC2(CC2)CN1C` (stereo partly specified), the outcome in data set [10] was inactive. Moreover, the IC50 was > 5000 nM in data set [2], > 1000 nM in [3], > 1000 nM in data set [4] and > 5000 nM in [5].
Regarding `O=C(NO)[C@H]1CCCN[C@@H]1C(=O)N1CC[C@H](c2ccccc2)C1`, inhibition in data set [1] was half-maximal at 480 nM (IC50).
Take `O=C(NO)[C@H]1CC2(CC2)CN[C@@H]1C(=O)N1CCC(c2ccccc2)CC1`: the concentration for half-maximal inhibition (IC50) in [1] was 320 nM; in data set [2], > 5000 nM; in data set [3], 450 nM; in data set [4], > 5000 nM; in [5] it was > 5000 nM.
Turning to `Cc1ccccc1N1CCN(C(=O)[C@H]2NCC3(CC3)C[C@@H]2C(=O)NO)CC1`, the result in data set [10] was inactive. In addition, the IC50 in data set [1], in [2], in [3], in [4] and in data set [5] was > 5000 nM throughout.
For `O=C(NO)[C@H]1CC2(CC2)CN[C@@H]1C(=O)N1CC[C@H](c2ccccc2)C1`, the IC50 in data set [2] was > 5000 nM; in data set [3] it was 960 nM; in data set [4], > 3000 nM; in [5], > 3000 nM.
On to `O=C(NO)[C@H]1CC2(CC2)CN[C@@H]1C(=O)N1CCN2c3ccccc3CC2C1` (stereo partly specified), for which the half-maximal inhibitory concentration (IC50) in data set [1] is 330 nM; in data set [2], > 5000 nM; in data set [3], 350 nM; in data set [4], > 5000 nM; in data set [5] it was > 5000 nM.

A word on the IC50: it is the concentration that gives 50% inhibition. The low end stands for greater potency in that assay, the high end for weaker potency in that assay. By clearance is commonly meant the volume of plasma or blood freed of the substance per unit of time. Low readings indicate inefficient removal, high ones efficient removal. Usually AUC(0-t) stands for exposure summed from dosing to a finite time, without extrapolation to infinity. A high value points to more exposure. What is called Cmax is the peak of the concentration-time curve.

Values taken from ChEMBL document CHEMBL1141384, “Discovery of a potent, selective, and orally active human epidermal growth factor receptor-2 sheddase inhibitor for the treatment of cancer” (J Med Chem, 2007).
